Measured values taken from US6274715A, “Tricyclic erythromycin derivatives” (priority 1997, dated 2001).
≈ marks a conversion by molar mass, not a printed value.

Experiments:
Type in all cases: cell-based
[1] = system: STREPTOCOCCUS PYOGENES PIU 2548; assay: In vitro antibacterial activity, MIC, BHI agar dilution; conditions: S. pyogenes PIU 2548, unit assumed
[2] = system: PSEUDOMONAS AERUGINOSA BMH10; assay: as above; conditions: P. aeruginosa BMH10, unit assumed
[3] = system: KLEBSIELLA PNEUMONIAE ATCC 8045; assay: as above; conditions: K. pneumoniae ATCC 8045, unit assumed
[4] = system: STAPHYLOCOCCUS AUREUS ATCC 6538P; assay: as above; conditions: S. aureus ATCC 6538P, 35-37° C., 20 to 24 hours, unit assumed
ESCHERICHIA COLI SS = assay: as above; conditions: E. coli SS, unit assumed
ESCHERICHIA COLI DC-2 = assay: as above; conditions: E. coli DC-2, unit assumed
[5] = system: STAPHYLOCOCCUS EPIDERMIDIS 3519; conditions: S. epidermidis 3519; BHI agar; unit assumed
[6] = system: STAPHYLOCOCCUS AUREUS CMX 642A; assay: In vitro antibacterial activity, MIC, BHI agar dilution; conditions: S. aureus CMX 642A, unit assumed
[7] = system: PSEUDOMONAS AERUGINOSA DPHD-2862; assay: as above; conditions: P. aeruginosa DPHD-2862, unit assumed
ESCHERICHIA COLI H560 = assay: as above; conditions: E. coli H560, unit assumed
PSEUDOMONAS CEPACIA 296I = assay: as above; conditions: P. cepacia 296I, unit assumed
[8] = system: PSEUDOMONAS AERUGINOSA DPHD-5263; assay: as above; conditions: P. aeruginosa DPHD-5263, unit assumed
[9] = system: PROVIDENCIA STUARTII CMX 640; conditions: P. stuartii CMX 640; BHI agar; unit assumed
[10] = system: STAPHYLOCOCCUS AUREUS A-5278; assay: In vitro antibacterial activity, MIC, BHI agar dilution; conditions: S. aureus A-5278, unit assumed
[11] = system: ENTEROBACTER AEROGENES ATCC 13048; assay: as above; conditions: E. aerogenes ATCC 13048, unit assumed
ESCHERICHIA COLI JUHL = conditions: E. coli JUHL; BHI agar; unit assumed
[12] = system: PSEUDOMONAS AERUGINOSA K799/61; assay: In vitro antibacterial activity, MIC, BHI agar dilution; conditions: P. aeruginosa K799/61, unit assumed
[13] = system: STAPHYLOCOCCUS AUREUS CMX 553; assay: as above; conditions: S. aureus CMX 553, unit assumed
ESCHERICHIA COLI KNK 437 = conditions: E. coli KNK 437; BHI agar; unit assumed
[14] = system: MYCOBACTERIUM SMEGMATIS ATCC 114; assay: In vitro antibacterial activity, MIC, BHI agar dilution; conditions: M. smegmatis ATCC 114, unit assumed
CANDIDA ALBICANS CCH 442 = assay: as above; conditions: C. albicans CCH 442, unit assumed
[15] = system: STAPHYLOCOCCUS AUREUS 1775; assay: as above; conditions: S. aureus 1775, unit assumed
[16] = system: PSEUDOMONAS AERUGINOSA K799/WT; assay: as above; conditions: P. aeruginosa K799/WT, unit assumed
[17] = system: STAPHYLOCOCCUS AUREUS A5177; assay: as above
[18] = system: STAPHYLOCOCCUS AUREUS NCTC10649M; assay: as above; conditions: S. aureus NCTC10649M, unit assumed
[19] = system: PSEUDOMONAS AERUGINOSA 5007; assay: as above; conditions: P. aeruginosa 5007, unit assumed
[20] = system: STREPTOCOCCUS PYOGENES EES61; assay: as above; conditions: S. pyogenes EES61, unit assumed
EN[…] ATCC 8043 = assay: as above; conditions: E. faecium ATCC 8043, unit assumed
How it was run: (§1)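 MIC was read visually as the lowest drug concentration showing no growth, a slight haze or sparsely isolated colonies relative to a compound-free BHI plate. Plates held serial aqueous dilutions in BHI agar, were spot-inoculated with 1:100 (or 1:10) culture dilutions and incubated 20 to 24 hours at 35-37° C.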

M[…] ATCC 9341 = assay: as above; conditions: M. luteus ATCC 9341, unit assumed
How it was run: as §1

M[…] ATCC 4698 = assay: as above; conditions: M. luteus ATCC 4698, unit assumed
How it was run: as §1

[21] = system: STREPTOCOCCUS PYOGENES 930; assay: as above; conditions: S. pyogenes 930, unit assumed
[22] = system: STREPTOCOCCUS BOVIS A-5169; assay: as above; conditions: S. bovis A-5169, unit assumed
STR[…] 508 = assay: as above; conditions: S. agalactiae CMX 508, unit assumed
How it was run: as §1

SMILES | MIC [1] [µg/mL] | MIC [2] [µg/mL] | MIC [3] [µg/mL] | MIC (ESCHERICHIA COLI SS) [µg/mL] | MIC (ESCHERICHIA COLI DC-2) [µg/mL] | MIC [5] [µg/mL] | MIC [6] [µg/mL] | MIC [7] [µg/mL] | MIC (ESCHERICHIA COLI H560) [µg/mL] | MIC [8] [µg/mL] | MIC [9] [µg/mL] | MIC [10] [µg/mL] | MIC (ESCHERICHIA COLI JUHL) [µg/mL] | MIC [12] [µg/mL] | MIC [13] [µg/mL] | MIC (ESCHERICHIA COLI KNK 437) [µg/mL] | MIC (CANDIDA ALBICANS CCH 442) [µg/mL] | MIC [15] [µg/mL] | MIC [16] [µg/mL] | MIC [19] [µg/mL] | also measured
CC[C@H]1OC(=O)[C@H](C)C(=O)[C@H](C)[C@@H](O[C@@H]2O[C@H](C)C[C@H](N(C)C)[C@H]2O)[C@](C)(OC)C[C@@H](C)C2=NCC(COC(=O)c3ccnc4ccccc34)N3C(=O)O[C@@]1(C)[C@H]3[C@H]2C (some centres unmarked) [Example 137] | 0.2 (≈ 0.243 µM) | 100 (≈ 122 µM) | 100 (≈ 122 µM) | 0.02 (≈ 0.0243 µM) | 12.5 (≈ 15.2 µM) | 0.05 (≈ 0.0608 µM) | 0.05 (≈ 0.0608 µM) | 50 (≈ 60.8 µM) | 12.5 (≈ 15.2 µM) | 100 (≈ 122 µM) | 100 (≈ 122 µM) | > 100 | 25 (≈ 30.4 µM) | 0.2 (≈ 0.243 µM) | 0.05 (≈ 0.0608 µM) | 25 (≈ 30.4 µM) | > 100 | > 100 | 50 (≈ 60.8 µM) | 100 (≈ 122 µM) | MIC [4]: 0.02 µg/mL (≈ 0.0243 µM); MIC (PSEUDOMONAS CEPACIA 296I): 50 µg/mL (≈ 60.8 µM); MIC [11]: 100 µg/mL (≈ 122 µM); MIC [14]: 0.2 µg/mL (≈ 0.243 µM); MIC ([17]; S. aureus A5177, unit assumed): 0.02 µg/mL (≈ 0.0243 µM); MIC [18]: 0.05 µg/mL (≈ 0.0608 µM); MIC [20]: 0.01 µg/mL (≈ 0.0122 µM); MIC (EN[…] ATCC 8043): 0.01 µg/mL (≈ 0.0122 µM); MIC (M[…] ATCC 9341): 0.01 µg/mL (≈ 0.0122 µM); MIC (M[…] ATCC 4698): 0.2 µg/mL (≈ 0.243 µM); MIC [21]: 6.2 µg/mL (≈ 7.53 µM)
CC[C@H]1OC(=O)[C@H](C)C(=O)[C@H](C)[C@@H](O[C@@H]2O[C@H](C)C[C@H](N(C)C)[C@H]2O)[C@](C)(OC)C[C@@H](C)C2=NC3CN(Cc4ccccc4)CC3N3C(=O)O[C@@]1(C)[C@H]3[C@H]2C (some centres unmarked) [Example 110] | 0.2 (≈ 0.26 µM) | 50 (≈ 65 µM) | > 100 | 0.2 (≈ 0.26 µM) | 25 (≈ 32.5 µM) | 0.2 (≈ 0.26 µM) | 0.39 (≈ 0.507 µM) | > 100 | 12.5 (≈ 16.3 µM) | > 100 | > 100 | > 100 | 50 (≈ 65 µM) | 1.56 (≈ 2.03 µM) | 0.2 (≈ 0.26 µM) | 50 (≈ 65 µM) | > 100 | > 100 | > 100 | > 100 | MIC (PSEUDOMONAS CEPACIA 296I): 50 µg/mL (≈ 65 µM); MIC [22]: 0.02 µg/mL (≈ 0.026 µM); MIC ([17]; S. aureus A5177, unit assumed): 0.2 µg/mL (≈ 0.26 µM); MIC [20]: 0.005 µg/mL (≈ 0.0065 µM); MIC (STR[…] 508): 0.02 µg/mL (≈ 0.026 µM); MIC (EN[…] ATCC 8043): 0.05 µg/mL (≈ 0.065 µM); MIC (M[…] ATCC 9341): 0.05 µg/mL (≈ 0.065 µM); MIC (M[…] ATCC 4698): 0.78 µg/mL (≈ 1.01 µM); MIC [21]: 50 µg/mL (≈ 65 µM)
CC[C@H]1OC(=O)[C@H](C)C(=O)[C@H](C)[C@@H](O[C@@H]2O[C@H](C)C[C@H](N(C)C)[C@H]2O)[C@](C)(OC)C[C@@H](C)C2=N[C@@H]3CN(Cc4ccccc4)C[C@@H]3N3C(=O)O[C@@]1(C)[C@H]3[C@H]2C [Example 21] | 0.39 (≈ 0.507 µM) | 100 (≈ 130 µM) | > 100 | 1.56 (≈ 2.03 µM) | 100 (≈ 130 µM) | 0.78 (≈ 1.01 µM) | 6.2 (≈ 8.06 µM) | > 100 | 50 (≈ 65 µM) | > 100 | > 100 | > 100 | > 100 | 3.1 (≈ 4.03 µM) | 0.78 (≈ 1.01 µM) | > 100 | > 100 | > 100 | > 100 | > 100 | MIC [4]: 0.78 µg/mL (≈ 1.01 µM); MIC (PSEUDOMONAS CEPACIA 296I): > 100 µg/mL; MIC [11]: > 100 µg/mL; MIC [22]: 0.05 µg/mL (≈ 0.065 µM); MIC ([17]; S. aureus A5177, unit assumed): 0.78 µg/mL (≈ 1.01 µM); MIC [18]: 0.78 µg/mL (≈ 1.01 µM); MIC [20]: 0.01 µg/mL (≈ 0.013 µM); MIC (STR[…] 508): 0.05 µg/mL (≈ 0.065 µM); MIC (EN[…] ATCC 8043): 0.2 µg/mL (≈ 0.26 µM); MIC (M[…] ATCC 9341): 0.78 µg/mL (≈ 1.01 µM); MIC (M[…] ATCC 4698): 3.1 µg/mL (≈ 4.03 µM); MIC [21]: 100 µg/mL (≈ 130 µM)
CC[C@H]1OC(=O)[C@H](C)[C@@H](O[C@H]2C[C@@](C)(OC)[C@@H](O)[C@H](C)O2)[C@H](C)[C@@H](O[C@@H]2O[C@H](C)C[C@H](N(C)C)[C@H]2O)[C@@H](C)C[C@@H](C)C2=NCCN3C(=O)O[C@@]1(C)[C@H]3[C@H]2C [Example 14] | 1.56 (≈ 2.03 µM) | 100 (≈ 130 µM) | 25 (≈ 32.6 µM) | 0.39 (≈ 0.508 µM) | 50 (≈ 65.1 µM) | 0.2 (≈ 0.26 µM) | 0.2 (≈ 0.26 µM) | > 100 | 50 (≈ 65.1 µM) | > 100 | > 100 | > 100 | 50 (≈ 65.1 µM) | 3.1 (≈ 4.04 µM) | 0.1 (≈ 0.13 µM) | 100 (≈ 130 µM) | > 100 | > 100 | 100 (≈ 130 µM) | > 100 | MIC [4]: 0.1 µg/mL (≈ 0.13 µM); MIC [11]: 100 µg/mL (≈ 130 µM); MIC [14]: 3.1 µg/mL (≈ 4.04 µM); MIC ([17]; S. aureus A5177): 6.2 µg/mL (≈ 8.07 µM); MIC [18]: 0.2 µg/mL (≈ 0.26 µM); MIC [20]: ≤ 0.005 µg/mL; MIC (STR[…] 508): 0.01 µg/mL (≈ 0.013 µM); MIC (EN[…] ATCC 8043): 0.05 µg/mL (≈ 0.0651 µM); MIC (M[…] ATCC 9341): 0.78 µg/mL (≈ 1.02 µM); MIC (M[…] ATCC 4698): 0.78 µg/mL (≈ 1.02 µM)
